ChEMBL document CHEMBL2034905, “Synthesis of benzimidazolyl-1,3,4-oxadiazol-2ylthio-N-phenyl (benzothiazolyl) acetamides as antibacterial, antifungal and antituberculosis agents” (Eur J Med Chem, 2012)
Converted amounts (≈) assume the structure as drawn.

How the values were obtained:
[1] = test system: Aspergillus niger; test: Antifungal activity against Aspergillus niger MTCC 282 at 100 ug/disc by paper disc diffusion technique; type: functional; conditions: read-out: IZ
[2] = test system: Escherichia coli; test: Antibacterial activity against Escherichia coli MTCC 739 by agar streak dilution method; type: functional
[3] = test system: Pseudomonas aeruginosa; test: Antibacterial activity against Pseudomonas aeruginosa MTCC 741 by agar streak dilution method; type: functional
[4] = test system: Aspergillus niger; test: Antifungal activity against Aspergillus niger MTCC 282 by agar streak dilution method; type: functional
[5] = test system: Candida albicans; test: Antifungal activity against Candida albicans MTCC 183 at 100 ug/disc by paper disc diffusion technique; type: functional; conditions: read-out: IZ
[6] = test system: Salmonella typhi; test: Antibacterial activity against Salmonella typhi MTCC 733 at 100 ug/disc by paper disc diffusion technique; type: functional, Salmonella enterica subsp. enterica serovar Typhi; conditions: Salmonella enterica, read-out: IZ
[7] = test system: Aspergillus fumigatus; test: Antifungal activity against Aspergillus fumigatus MTCC 343 at 100 ug/disc by paper disc diffusion technique; type: functional; conditions: read-out: IZ
[8] = test system: Klebsiella pneumoniae; test: Antibacterial activity against Klebsiella pneumoniae MTCC 109 by agar streak dilution method; type: functional
[9] = test system: Proteus vulgaris; test: Antibacterial activity against Proteus vulgaris MTCC 1771 by agar streak dilution method; type: functional
[10] = test system: Escherichia coli; test: Antibacterial activity against Escherichia coli MTCC 739 at 100 ug/disc by paper disc diffusion technique; type: functional; conditions: read-out: IZ
[11] = test system: Klebsiella pneumoniae; test: Antibacterial activity against Klebsiella pneumoniae MTCC 109 at 100 ug/disc by paper disc diffusion technique; type: functional; conditions: read-out: IZ
[12] = test system: Salmonella typhi; test: Antibacterial activity against Salmonella typhi MTCC 733 by agar streak dilution method; type: functional, Salmonella enterica subsp. enterica serovar Typhi; conditions: Salmonella enterica
[13] = test system: Bacillus cereus; test: Antibacterial activity against Bacillus cereus MTCC 430 at 100 ug/disc by paper disc diffusion technique; type: functional; conditions: read-out: IZ
[14] = test system: Bacillus cereus; test: Antibacterial activity against Bacillus cereus MTCC 430 by agar streak dilution method; type: functional
[15] = test system: Proteus vulgaris; test: Antibacterial activity against Proteus vulgaris MTCC 1771 at 100 ug/disc by paper disc diffusion technique; type: functional; conditions: read-out: IZ
[16] = test system: Pseudomonas aeruginosa; test: Antibacterial activity against Pseudomonas aeruginosa MTCC 741 at 100 ug/disc by paper disc diffusion technique; type: functional; conditions: read-out: IZ
[17] = test system: Staphylococcus aureus; test: Antibacterial activity against Staphylococcus aureus MTCC 96 at 100 ug/disc by paper disc diffusion technique; type: functional; conditions: read-out: IZ
[18] = test system: Aspergillus fumigatus; test: Antifungal activity against Aspergillus fumigatus MTCC 343 by agar streak dilution method; type: functional
[19] = test system: Aspergillus clavatus; test: Antifungal activity against Aspergillus clavatus MTCC 1323 by agar streak dilution method; type: functional
[20] = test system: Staphylococcus aureus; test: Antibacterial activity against Staphylococcus aureus MTCC 96 by agar streak dilution method; type: functional
[21] = test system: Shigella flexneri; test: Antibacterial activity against Shigella flexneri MTCC 1457 at 100 ug/disc by paper disc diffusion technique; type: functional; conditions: read-out: IZ
[22] = test system: Aspergillus clavatus; test: Antifungal activity against Aspergillus clavatus MTCC 1323 at 100 ug/disc by paper disc diffusion technique; type: functional; conditions: read-out: IZ
[23] = test system: Mycobacterium tuberculosis; test: Antituberculosis activity against Mycobacterium tuberculosis H37Rv by BACTEC MGIT method; type: functional
[24] = test system: Candida albicans; test: Antifungal activity against Candida albicans MTCC 183 by agar streak dilution method; type: functional
[25] = test system: Shigella flexneri; test: Antibacterial activity against Shigella flexneri MTCC 1457 by agar streak dilution method; type: functional
[26] = test system: Mycobacterium tuberculosis; test: Antituberculosis activity against Mycobacterium tuberculosis H37Rv by Lowenstein-Jensen method; type: functional
[27] = test system: Mycobacterium tuberculosis; test: Antituberculosis activity against Mycobacterium tuberculosis H37Rv at 6.25 ug/ml by Lowenstein-Jensen method; type: functional

Row | Structure (SMILES) | zone of inhibition at 100 µg/disc [1] [mm] | MIC [2] [µg/mL] | MIC [3] [µg/mL] | MIC [4] [µg/mL] | zone of inhibition at 100 µg/disc [5] [mm] | zone of inhibition at 100 µg/disc [6] [mm] | zone of inhibition at 100 µg/disc [7] [mm] | MIC [8] [µg/mL] | MIC [9] [µg/mL] | zone of inhibition at 100 µg/disc [10] [mm] | zone of inhibition at 100 µg/disc [11] [mm] | MIC [12] [µg/mL] | zone of inhibition at 100 µg/disc [13] [mm] | MIC [14] [µg/mL] | zone of inhibition at 100 µg/disc [15] [mm] | zone of inhibition at 100 µg/disc [16] [mm] | zone of inhibition at 100 µg/disc [17] [mm] | MIC [18] [µg/mL] | MIC [19] [µg/mL] | MIC [20] [µg/mL] | other results
1 | O=C(CSc1nnc(Cn2cnc3ccccc32)o1)Nc1ccc(F)cc1 | 19 | 50 (≈ 130 µM) | 12.5 (≈ 32.6 µM) | 50 (≈ 130 µM) | 16 | 21 | 23 | 50 (≈ 130 µM) | 50 (≈ 130 µM) | 18 | 22 | 50 (≈ 130 µM) | 16 | 50 (≈ 130 µM) | 14 | 24 | 18 | 50 (≈ 130 µM) | 100 (≈ 261 µM) | 25 (≈ 65.2 µM) | zone of inhibition at 100 µg/disc [21]: 23 mm; zone of inhibition at 100 µg/disc [22]: 17 mm; MIC [23]: > 6.25 µg/mL; MIC [24]: 100 µg/mL (≈ 261 µM); MIC [25]: 12.5 µg/mL (≈ 32.6 µM); MIC [26]: 50 µg/mL (≈ 130 µM); inhibition at 6.25 µg/mL [27]: 97%
2 | O=C(CSc1nnc(Cn2cnc3ccccc32)o1)Nc1ccc([N+](=O)[O-])cc1 | 18 | 100 (≈ 244 µM) | 50 (≈ 122 µM) | 50 (≈ 122 µM) | 15 | 13 | 18 | 100 (≈ 244 µM) | 100 (≈ 244 µM) | 12 | 20 | 100 (≈ 244 µM) | 13 | 100 (≈ 244 µM) | 14 | 20 | 20 | 100 (≈ 244 µM) | 50 (≈ 122 µM) | 12.5 (≈ 30.5 µM) | zone of inhibition at 100 µg/disc [21]: 19 mm; zone of inhibition at 100 µg/disc [22]: 24 mm; MIC [23]: > 6.25 µg/mL; MIC [24]: 100 µg/mL (≈ 244 µM); MIC [25]: 100 µg/mL (≈ 244 µM); MIC [26]: 100 µg/mL (≈ 244 µM); inhibition at 6.25 µg/mL [27]: 94%
3 | CC(=O)Nc1ccc(NC(=O)CSc2nnc(Cn3cnc4ccccc43)o2)cc1 | 22 | 50 (≈ 118 µM) | 100 (≈ 237 µM) | 25 (≈ 59.2 µM) | 18 | < 10 | 15 | 100 (≈ 237 µM) | 25 (≈ 59.2 µM) | 20 | 13 | 100 (≈ 237 µM) | 11 | 100 (≈ 237 µM) | 20 | 19 | < 10 | 100 (≈ 237 µM) | 100 (≈ 237 µM) | 100 (≈ 237 µM) | zone of inhibition at 100 µg/disc [21]: 16 mm; zone of inhibition at 100 µg/disc [22]: 18 mm; MIC [23]: > 6.25 µg/mL; MIC [24]: 100 µg/mL (≈ 237 µM); MIC [25]: 100 µg/mL (≈ 237 µM); MIC [26]: 100 µg/mL (≈ 237 µM); inhibition at 6.25 µg/mL [27]: 95%
4 | N#Cc1ccc(NC(=O)CSc2nnc(Cn3cnc4ccccc43)o2)cc1 | < 10 | 50 (≈ 128 µM) | 50 (≈ 128 µM) | 100 (≈ 256 µM) | 11 | 20 | 14 | 25 (≈ 64 µM) | 50 (≈ 128 µM) | 19 | 24 | 50 (≈ 128 µM) | 19 | 50 (≈ 128 µM) | 19 | 21 | 18 | 100 (≈ 256 µM) | 100 (≈ 256 µM) | 25 (≈ 64 µM) | zone of inhibition at 100 µg/disc [21]: 17 mm; zone of inhibition at 100 µg/disc [22]: 13 mm; MIC [23]: > 6.25 µg/mL; MIC [24]: 100 µg/mL (≈ 256 µM); MIC [25]: 100 µg/mL (≈ 256 µM); MIC [26]: 62.5 µg/mL (≈ 160 µM); inhibition at 6.25 µg/mL [27]: 96%
5 | O=C(CSc1nnc(Cn2cnc3ccccc32)o1)Nc1ccc(Cl)cc1 | < 10 | 100 (≈ 250 µM) | 12.5 (≈ 31.3 µM) | 100 (≈ 250 µM) | 14 | 17 | 16 | 50 (≈ 125 µM) | 50 (≈ 125 µM) | 15 | 21 | 100 (≈ 250 µM) | 11 | 50 (≈ 125 µM) | 20 | 26 | 15 | 100 (≈ 250 µM) | 100 (≈ 250 µM) | 50 (≈ 125 µM) | zone of inhibition at 100 µg/disc [21]: 22 mm; zone of inhibition at 100 µg/disc [22]: 14 mm; MIC [23]: > 6.25 µg/mL; MIC [24]: 100 µg/mL (≈ 250 µM); MIC [25]: 12.5 µg/mL (≈ 31.3 µM); MIC [26]: 25 µg/mL (≈ 62.5 µM); inhibition at 6.25 µg/mL [27]: 98%
